Laboratory results taken from patent publication US8273717B2, “Inhibitor for perioperative blood sugar elevation” (Otsuka Pharmaceutical Factory, Inc., priority 2003, dated 2012).

Tests used:
Assay type in all cases: in vivo, rat
[1] = system: blood sugar level; assay: Test Example 6: effect of branched amino acids in blood sugar elevation model by glucose (blood sugar level); details: Pentobarbital anesthesia; for time at which blood sugar level reached the maximum (peak): after the start of test, 5 weight % glucose-1.8% amino acid i.v.
Method: A blood sugar elevation model was made by intravenous administration of glucose to the living body, and the effect was examined with parallel administration of leucine, isoleucine and valine in the above-mentioned model.
(§1) Rats were pre-treated in a similar manner to Test Example 4, and anesthesia in the rats was maintained for 3 hours by intravenous continuous administration of Pentobarbital in a similar manner to Test Example 4. […] Blood was collected (100 μL) through the catheter for administration of aqueous amino acid solution before the start of administration, 30 minutes, 90 minutes, and 180 minutes after the start of administration respectively. And then, the blood sugar level and serum insulin value were determined according to Test Example 1.

[2] = system: blood sugar level; assay: Test Example 8: inhibition of blood sugar elevation by oral isoleucine during sugar tolerance, non-anesthesia vs anesthesia; details: 0.5 g/10 mL/kg isoleucine orally, 3 g glucose/kg orally 30 minutes later
Method: Non-anesthesia group: rats under overnight fasting conditions were divided into groups by body weight, blood was collected from a tail vein (Pre Value). To a control group and a sample solution group was orally administered 0.5 g/10 mL/kg of OTSUKA distilled water (water for injection; manufactured by OTSUKA PHAMACEUTICAL FACTORY, INC.) and 0.5 g/10 mL/kg of aqueous isoleucine solution, respectively. 50% OTSUKA sugar solution (glucose injection (glucose 100 g/200 mL); manufactured by OTSUKA PHAMACEUTICAL FACTORY, INC.; hereinafter also simply called glucose solution) was administered orally so as to be 3 g glucose/kg 30 minutes after the administration of the sample solution. Blood was collected from the tail vein 30 minutes, 60 minutes, 90 minutes, and 120 minutes after the start of sugar solution administration, and the blood sugar level was determined. Each blood sugar level was considered as 30 minutes value, 60 minutes value, 90 minutes value, and 120 minutes value, respectively in the non-anesthesia group.
Anesthesia group: rats under overnight fasting conditions were divided into groups by body weight, blood was collected from a tail vein (Pre Value). […] The blood sugar level of the blood collected from the tail vein 30 minutes, 60 minutes, 90 minutes, and 120 minutes after the administration of sugar solution was determined. […]

[3] = system: serum insulin value; assay: Test Example 6: serum insulin value with glucose+leucine
Method: The serum insulin value was determined by ELISA Method (manufactured by Mevcodia Co.).
as §1

[4] = system: blood sugar level; assay: Test Example 7: blood sugar decrease by oral administration of leucine, anesthesia vs non-anesthesia; details: 0.3 g/10 mL/kg leucine suspension orally
Method: Non-anesthesia group: rats under overnight fasting conditions were divided into groups by body weight, and blood was collected from a tail vein (Pre Value). Shortly after that, 10 mL/kg of distilled water was orally administered to control group, and 0.3 g/10 mL/kg of leucine suspension to a sample solution group. Blood was collected from the tail vein 90 minutes after the administration of distilled water and the sample solution (90 minutes value).
Anesthesia group: rats under overnight fasting conditions were divided into groups by body weight, and blood was collected from a tail vein (Pre Value). After the blood collection, 10 mL/kg of distilled water was orally administered to a control group, and 0.3 g/10 mL/kg of leucine suspension to a sample solution group. Saflow indwelling needle was kept in the tail vein 30 minutes after the sample solution was administered. After that, anesthesia was introduced by rapid intravenous administration of 30 mg/kg Pentobarbital Sodium. Thereafter, a gastight syringe disposed in micro syringe pump and an indwelling needle were connected through an extension tube, and anesthesia was maintained by continuous intravenous administration of 30 mg/kg/hr. Blood was collected from the tail vein opposite to that wherein the indwelling needle was kept 60 minutes after introduction of anesthesia (90 minutes value).
In addition, blood was collected in a tube for hematocrit determination. After collected blood was centrifuged, plasma fraction was recovered and the blood sugar level was determined according to Test Example 1.
The changed value of the blood sugar level was calculated by deducting Pre value of each rat plasma from 90 minutes value of each rat plasma.

| SMILES | time at which blood sugar level reached the maximum (peak) [1] [min] | area under the blood sugar level curve (AUC, 0-120 min) compared to control group ([2]; anesthesia group (Somnopentyl i.p.)) | area under the blood sugar level curve (AUC, 0-120 min) compared to control group ([2]; non-anesthesia group) | blood sugar level compared with glucose administration group ([1]; 90 and 180 minutes after the start of the test) | increase of serum insulin value under anesthesia relative to non-anesthesia ([3]; 30 minutes) [times] | increase of serum insulin value under anesthesia relative to non-anesthesia ([3]; 90 minutes) [times] | increase of serum insulin value under anesthesia relative to non-anesthesia ([3]; 180 minutes) [times] | decrease extent of blood sugar level in the anesthesia group compared to non-anesthesia group [4] [times] | changed value of the blood sugar level (90 minutes value minus Pre value) ([4]; anesthesia group (Pentobarbital Sodium)) | changed value of the blood sugar level (90 minutes value minus Pre value) ([4]; non-anesthesia group) |
| --- | --- | --- | --- | --- | --- | --- | --- | --- | --- | --- |
| CC[C@H](C)[C@H](N)C(=O)O [isoleucine] | 30 | significant decrease | decreased compared to that of the control group | – | – | – | – | – | – | – |
| CC(C)C[C@H](N)C(=O)O [leucine] | 30 | – | – | lower significantly | 1.7 | 9.9 | 16.2 | 2.7 | decrease in blood sugar level was recognized | decrease in blood sugar level was recognized |
